Marks after values point to notes of the source that are not given here.
Test system: New Zealand White rabbits
Experiment: Embryo-fetal developmental toxicity study in New Zealand White rabbits (Example 4);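 also: dams given a detailed clinical exam daily GD 6 to 29, about 4 h after dosing, then laparohysterectomy on GD 29 with external, visceral and skeletal fetal examination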

CC(C)NC(=O)COc1cccc(-c2nc(Nc3ccc4[nH]ncc4c3)c3ccccc3n2)c1 [belumosudil, 2-{3-[4-(1H-indazol-5-ylamino)-2-quinazolinyl]phenoxy}-N-(propan-2-yl) acetamide]
Fetal External Malformation: Short Tail, No. Fetuses (incidence) (50 mg base/kg/day): 0 (0.0)
Fetal External Malformation: Short Tail, No. Litters (incidence) (50 mg base/kg/day): 0 (0.0)
Fetal External Malformations, No. Fetuses (incidence) (50 mg base/kg/day): 1 (0.5)
Fetal External Malformations, No. Litters (incidence) (50 mg base/kg/day): 1 (4.5)
Fetal Skeletal Malformations, No. Fetuses (incidence) (50 mg base/kg/day): 8 (4.3)
Fetal Skeletal Malformations, No. Litters (incidence) (50 mg base/kg/day): 6 (27.3)
Fetal Visceral Variations, No. Fetuses (incidence) (50 mg base/kg/day): 6 (3.2)
Fetal Visceral Variations, No. Litters (incidence) (50 mg base/kg/day): 4 (18.2)
Maternal Food Consumption GD 0-29 (50 mg base/kg/day): 141.1
Maternal Food Consumption GD 6-10 (50 mg base/kg/day): 149.4
Maternal Food Consumption GD 6-19 (50 mg base/kg/day): 142.7
Maternal Food Consumption GD 6-19, % Difference From Control (50 mg base/kg/day): −8.8%
Maternal Food Consumption GD 19-29 (50 mg base/kg/day): 136.0
Mean Fetal Body Weight Females (50 mg base/kg/day): 40.25 g
Mean Fetal Body Weight Genders Combined (50 mg base/kg/day): 40.97 g
Mean Fetal Body Weight Males (50 mg base/kg/day): 41.64 g
Mean Live Litter Size (50 mg base/kg/day): 8.5
Mean Number of Early Resorptions (50 mg base/kg/day): 0.2
Mean Number of Resorptions (Combined) (50 mg base/kg/day): 0.2
Mean Postimplantation Loss (50 mg base/kg/day): 2.42 %/Litter
Number Litters with Viable Fetuses GD29 (50 mg base/kg/day): 22
Number with All Resorptions GD29 (50 mg base/kg/day): 0
Number Aborted (50 mg base/kg/day, 23 females): 0
Number Litters with Viable Fetuses GD29 (50 mg base/kg/day, 23 females): 22
Number Not Pregnant (50 mg base/kg/day, 23 females): 1
Number with All Resorptions GD29 (50 mg base/kg/day, 23 females): 0
Activity decreased, times observed/animals affected (50 mg base/kg/day, GD 0-29): 0/0
Feces few/absent, times observed/animals affected (50 mg base/kg/day, GD 0-29): 0/0
Hair discolored, Brown, Anogenital region, times observed/animals affected (50 mg base/kg/day, GD 0-29): 0/0
Hair discolored, Brown, Ear/left, times observed/animals affected (50 mg base/kg/day, GD 0-29): 12/1
Hair discolored, Brown, Ear/right, times observed/animals affected (50 mg base/kg/day, GD 0-29): 12/1
Hair discolored, Brown, Face, times observed/animals affected (50 mg base/kg/day, GD 0-29): 24/3
Hair discolored, Brown, Hind limb/left, times observed/animals affected (50 mg base/kg/day, GD 0-29): 3/1
Hair discolored, Red, Anogenital region, times observed/animals affected (50 mg base/kg/day, GD 0-29): 0/0
Hair discolored, Red, Face, times observed/animals affected (50 mg base/kg/day, GD 0-29): 0/0
Hair discolored, Red, Forelimb/left, times observed/animals affected (50 mg base/kg/day, GD 0-29): 1/1
Hair discolored, Red, Thoracic region, times observed/animals affected (50 mg base/kg/day, GD 0-29): 1/1
Hair discolored, Yellow, Ear/right, times observed/animals affected (50 mg base/kg/day, GD 0-29): 0/0
Hair discolored, Yellow, Face, times observed/animals affected (50 mg base/kg/day, GD 0-29): 27/2
Hair sparse, Anogenital region, times observed/animals affected (50 mg base/kg/day, GD 0-29): 0/0
Hair sparse, Axillary region/left, times observed/animals affected (50 mg base/kg/day, GD 0-29): 0/0
Hair sparse, Axillary region/right, times observed/animals affected (50 mg base/kg/day, GD 0-29): 0/0
Hair sparse, Cervical region, times observed/animals affected (50 mg base/kg/day, GD 0-29): 0/0
Hair sparse, Ear/left, times observed/animals affected (50 mg base/kg/day, GD 0-29): 0/0
Hair sparse, Ear/right, times observed/animals affected (50 mg base/kg/day, GD 0-29): 0/0
Hair sparse, Forefoot/left, times observed/animals affected (50 mg base/kg/day, GD 0-29): 5/1
Hair sparse, Forefoot/right, times observed/animals affected (50 mg base/kg/day, GD 0-29): 4/1
Hair sparse, Forelimb/left, times observed/animals affected (50 mg base/kg/day, GD 0-29): 5/1
Hair sparse, Hind limb/left, times observed/animals affected (50 mg base/kg/day, GD 0-29): 5/1
Hair sparse, Inguinal region/right, times observed/animals affected (50 mg base/kg/day, GD 0-29): 0/0
Hair sparse, Shoulder/left, times observed/animals affected (50 mg base/kg/day, GD 0-29): 0/0
Hair sparse, Thoracic region, times observed/animals affected (50 mg base/kg/day, GD 0-29): 0/0
Hair sparse, Ventral surface, times observed/animals affected (50 mg base/kg/day, GD 0-29): 0/0
Material in pan/bedding, Red, times observed/animals affected (50 mg base/kg/day, GD 0-29): 0/0
Nail missing, Forefoot/left, times observed/animals affected (50 mg base/kg/day, GD 0-29): 1/1
Scabbed area, Ear/left, times observed/animals affected (50 mg base/kg/day, GD 0-29): 0/0
Scabbed area, Nose/muzzle, times observed/animals affected (50 mg base/kg/day, GD 0-29): 0/0
Skin discolored, Pale, Entire body, times observed/animals affected (50 mg base/kg/day, GD 0-29): 0/0
Swelling, Nose/muzzle, times observed/animals affected (50 mg base/kg/day, GD 0-29): 0/0
Swelling, Vulva, times observed/animals affected (50 mg base/kg/day, GD 0-29): 3/1
Thin, times observed/animals affected (50 mg base/kg/day, GD 0-29): 0/0
Fetal External Malformation: Short Tail, No. Fetuses (incidence) (125 mg base/kg/day): 0 (0.0)
Fetal External Malformation: Short Tail, No. Litters (incidence) (125 mg base/kg/day): 0 (0.0)
Fetal External Malformations, No. Fetuses (incidence) (125 mg base/kg/day): 0 (0.0)
Fetal External Malformations, No. Litters (incidence) (125 mg base/kg/day): 0 (0.0)
Fetal Skeletal Malformations, No. Fetuses (incidence) (125 mg base/kg/day): 10 (6.6)
Fetal Skeletal Malformations, No. Litters (incidence) (125 mg base/kg/day): 6 (31.6)
Fetal Visceral Variations, No. Fetuses (incidence) (125 mg base/kg/day): 11 (7.2)
Fetal Visceral Variations, No. Litters (incidence) (125 mg base/kg/day): 7 (36.8)
Maternal Body Weight Change GD 0-29, % Difference From Control (125 mg base/kg/day): −8.6%
Maternal Body Weight GD 19, % Difference From Control (125 mg base/kg/day): −5.1%
Maternal Food Consumption GD 0-29 (125 mg base/kg/day): 128.8
Maternal Food Consumption GD 0-29, % Difference From Control (125 mg base/kg/day): −11.6%
Maternal Food Consumption GD 6-10 (125 mg base/kg/day): 117.9^b
Maternal Food Consumption GD 6-19 (125 mg base/kg/day): 103.1
Maternal Food Consumption GD 6-19, % Difference From Control (125 mg base/kg/day): −34.1%
Maternal Food Consumption GD 19-29 (125 mg base/kg/day): 149.9^a
Mean Fetal Body Weight Females (125 mg base/kg/day): 41.14 g
Mean Fetal Body Weight Genders Combined (125 mg base/kg/day): 41.09 g
Mean Fetal Body Weight Males (125 mg base/kg/day): 41.61 g
Mean Live Litter Size (125 mg base/kg/day): 8.0
Mean Number of Early Resorptions (125 mg base/kg/day): 0.5
Mean Number of Resorptions (Combined) (125 mg base/kg/day): 0.7
Mean Postimplantation Loss (125 mg base/kg/day): 7.42 %/Litter
Number Litters with Viable Fetuses GD29 (125 mg base/kg/day): 19
Number with All Resorptions GD29 (125 mg base/kg/day): 0
ureter malpositioned, litter incidence (125 mg base/kg/day): 21.1%
Number Aborted (125 mg base/kg/day, 23 females): 1
Number Litters with Viable Fetuses GD29 (125 mg base/kg/day, 23 females): 19
Number Not Pregnant (125 mg base/kg/day, 23 females): 3
Number with All Resorptions GD29 (125 mg base/kg/day, 23 females): 0
Activity decreased, times observed/animals affected (125 mg base/kg/day, GD 0-29): 0/0
Feces few/absent, times observed/animals affected (125 mg base/kg/day, GD 0-29): 0/0
Hair discolored, Brown, Anogenital region, times observed/animals affected (125 mg base/kg/day, GD 0-29): 7/1
Hair discolored, Brown, Ear/left, times observed/animals affected (125 mg base/kg/day, GD 0-29): 0/0
Hair discolored, Brown, Ear/right, times observed/animals affected (125 mg base/kg/day, GD 0-29): 0/0
Hair discolored, Brown, Face, times observed/animals affected (125 mg base/kg/day, GD 0-29): 0/0
Hair discolored, Brown, Hind limb/left, times observed/animals affected (125 mg base/kg/day, GD 0-29): 0/0
Hair discolored, Red, Anogenital region, times observed/animals affected (125 mg base/kg/day, GD 0-29): 1/1
Hair discolored, Red, Face, times observed/animals affected (125 mg base/kg/day, GD 0-29): 2/1
Hair discolored, Red, Forelimb/left, times observed/animals affected (125 mg base/kg/day, GD 0-29): 0/0
Hair discolored, Red, Thoracic region, times observed/animals affected (125 mg base/kg/day, GD 0-29): 0/0
Hair discolored, Yellow, Ear/right, times observed/animals affected (125 mg base/kg/day, GD 0-29): 0/0
Hair discolored, Yellow, Face, times observed/animals affected (125 mg base/kg/day, GD 0-29): 10/1
Hair sparse, Anogenital region, times observed/animals affected (125 mg base/kg/day, GD 0-29): 15/2
Hair sparse, Axillary region/left, times observed/animals affected (125 mg base/kg/day, GD 0-29): 2/1
Hair sparse, Axillary region/right, times observed/animals affected (125 mg base/kg/day, GD 0-29): 2/1
Hair sparse, Cervical region, times observed/animals affected (125 mg base/kg/day, GD 0-29): 1/1
Hair sparse, Ear/left, times observed/animals affected (125 mg base/kg/day, GD 0-29): 0/0
Hair sparse, Ear/right, times observed/animals affected (125 mg base/kg/day, GD 0-29): 0/0
Hair sparse, Forefoot/left, times observed/animals affected (125 mg base/kg/day, GD 0-29): 0/0
